Consider 31 compounds from patent US20240360082A1, “SUBSTITUTED PYRIDONE COMPOUNDS USEFUL TO TREAT ORTH[…]” (priority 2021, published 2024).

The first test deals with influenza A virus minigenome (PB2, PB1, PA, NP proteins) (UniProt P04665). It is filed as cell-based. The conditions noted are these: read-out: RNP_ Hubei B IC50.
Sequence of influenza A virus minigenome (PB2, PB1, PA, NP proteins) (P04665 whole entry): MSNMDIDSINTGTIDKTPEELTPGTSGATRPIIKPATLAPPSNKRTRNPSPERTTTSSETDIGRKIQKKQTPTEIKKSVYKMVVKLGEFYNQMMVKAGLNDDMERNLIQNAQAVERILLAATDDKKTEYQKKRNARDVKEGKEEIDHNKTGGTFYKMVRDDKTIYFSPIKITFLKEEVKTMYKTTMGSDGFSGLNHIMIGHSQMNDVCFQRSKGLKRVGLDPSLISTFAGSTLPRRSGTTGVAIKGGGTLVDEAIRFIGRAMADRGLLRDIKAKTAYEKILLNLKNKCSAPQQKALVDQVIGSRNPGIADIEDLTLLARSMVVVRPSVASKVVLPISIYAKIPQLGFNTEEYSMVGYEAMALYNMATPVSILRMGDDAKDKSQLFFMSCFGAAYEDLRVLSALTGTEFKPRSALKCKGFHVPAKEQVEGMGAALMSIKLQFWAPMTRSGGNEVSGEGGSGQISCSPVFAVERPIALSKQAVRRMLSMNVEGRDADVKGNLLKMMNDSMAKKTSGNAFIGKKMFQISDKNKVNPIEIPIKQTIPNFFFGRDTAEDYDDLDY
Regarding `NC(=O)c1cc(-c2ccc(OCC3OCC4CCC3O4)cc2)c(C(F)(F)F)[nH]c1=O` (single isomer, unassigned) [Example 318, 5-(4-((3,8-dioxabicyclo[3.2.1]octan-2-yl)methoxy)phenyl)-2-oxo-6-(trifluoromethyl)-1,2-dihydropyridine-3-carboxamide], the IC50 lay within 5 to 10 µM.
Consider `NC(=O)c1cc(-c2ccc(OCC3COCC(CO)O3)cc2)c(C(F)(F)F)[nH]c1=O` (stereo not shown) [Example 384, 5-(4-((6-(hydroxymethyl)-1,4-dioxan-2-yl)methoxy)phenyl)-2-oxo-6-(trifluoromethyl)-1,2-dihydropyridine-3-carboxamide], for which the IC50 lay in the range of 5 to 10 µM.
Same read-out and setting: as for `CC(F)(F)C1COCC(COc2ccc(-c3cc(C(N)=O)c(=O)[nH]c3C(F)(F)F)cc2)O1` (single isomer, unassigned) [Example 359, 5-(4-((6-(1,1-difluoroethyl)-1,4-dioxan-2-yl)methoxy)phenyl)-2-oxo-6-(trifluoromethyl)-1,2-dihydropyridine-3-carboxamide], the figure is 5 to 10 µM; as for `CC(C)(C)OC(=O)N1CCC(COc2ccc(-c3cc(C(N)=O)c(=O)[nH]c3C(F)(F)F)cc2)C1` (stereo not shown) [Example 302, Tert-butyl 3-((4-(5-carbamoyl-6-oxo-2-(trifluoromethyl)-1,6-dihydropyridin-3-yl)phenoxy)methyl)pyrrolidine-1-carboxylate], 25 to 50 µM.
Turning to `NC(=O)c1cc(-c2ccc(OCC3COC(C(F)F)CO3)cc2)c(C(F)(F)F)[nH]c1=O` (single isomer, unassigned) [Example 346, 5-(4-((5-(difluoromethyl)-1,4-dioxan-2-yl)methoxy)phenyl)-2-oxo-6-(trifluoromethyl)-1,2-dihydropyridine-3-carboxamide], the IC50 was in the range of 5 to 10 µM.
Take `NC(=O)c1cc(-c2ccc(OCC3COCc4c(C5CC5)nnn43)cc2)c(C(F)(F)F)[nH]c1=O` (stereo not shown) [Example 381, 5-(4-((3-cyclopropyl-6,7-dihydro-4H-[1,2,3]triazolo[5,1-c][1,4]oxazin-7-yl)methoxy)phenyl)-2-oxo-6-(trifluoromethyl)-1,2-dihydropyridine-3-carboxamide]: the IC50 was in the range of 5 to 10 µM.
Regarding `NC(=O)c1cc(-c2ccc(OCC3COCC4(CC4)O3)cc2)c(C(F)(F)F)[nH]c1=O` (single isomer, unassigned) [Example 335, (4-(4,7-dioxaspiro[2.5]octan-5-ylmethoxy)phenyl)-2-oxo-6-(trifluoromethyl)-1,2-dihydropyridine-3-carboxamide], the IC50 was in the range of 5 to 10 µM.
In the case of `C[C@H]1COC[C@H](COc2ccc(-c3cc(C(N)=O)c(=O)[nH]c3C(F)(F)F)cc2)O1` [Example 331, 5-(4-(((2R,6S)-6-methyl-1,4-dioxan-2-yl)methoxy)phenyl)-2-oxo-6-(trifluoromethyl)-1,2-dihydropyridine-3-carboxamide], the IC50 lay in the range of 10 to 25 µM.
As for `CC(C)n1ncc2c1COCC2COc1ccc(-c2cc(C(N)=O)c(=O)[nH]c2C(F)(F)F)cc1` (single isomer, unassigned) [Example 294, 5-(4-((1-isopropyl-1,4,5,7-tetrahydropyrano[3,4-c]pyrazol-4-yl)methoxy)phenyl)-2-oxo-6-(trifluoromethyl)-1,2-dihydropyridine-3-carboxamide], the IC50 lay within 5 to 10 µM.
Same read-out and setting: the value for `COCCn1cc(COc2ccc(-c3cc(C(N)=O)c(=O)[nH]c3C(F)(F)F)cc2)cn1` [Example 218, 5-(4-((1-(2-methoxyethyl)-1H-pyrazol-4-yl)methoxy)phenyl)-2-oxo-6-(trifluoromethyl)-1,2-dihydropyridine-3-carboxamide] was 25 to 50 µM; that for `NC(=O)c1cc(-c2ccc(OCC3CCO3)cc2)c(C(F)(F)F)[nH]c1=O` (stereo not shown) [Example 225, 5-(4-(oxetan-2-ylmethoxy)phenyl)-2-oxo-6-(trifluoromethyl)-1,2-dihydropyridine-3-carboxamide] was 25 to 50 µM; that for `Cc1ncsc1COc1ccc(-c2cc(C(N)=O)c(=O)[nH]c2C(F)(F)F)cc1` [Example 272, 5-(4-((4-methylthiazol-5-yl)methoxy)phenyl)-2-oxo-6-(trifluoromethyl)-1,2-dihydropyridine-3-carboxamide] was 25 to 50 µM.
On to `C[C@]1(CS(C)(=O)=O)COC[C@@H](COc2ccc(-c3cc(C(N)=O)c(=O)[nH]c3C(F)(F)F)cc2)O1` [Example 412, 5-(4-(((2S,6R)-6-methyl-6-((methylsulfonyl)methyl)-1,4-dioxan-2-yl)methoxy)phenyl)-2-oxo-6-(trifluoromethyl)-1,2-dihydropyridine-3-carboxamide], for which the IC50 lay within 5 to 10 µM.
Take `CC(C)(O)C1COCC(COc2ccc(-c3cc(C(N)=O)c(=O)[nH]c3C(F)(F)F)cc2)O1` (single isomer, unassigned) [Example 355, 5-(4-((6-(2-hydroxypropan-2-yl)-1,4-dioxan-2-yl)methoxy)phenyl)-2-oxo-6-(trifluoromethyl)-1,2-dihydropyridine-3-carboxamide]: the IC50 is 5 to 10 µM.
With `NC(=O)c1cc(-c2ccc(OCc3cnc4ccccn34)cc2)c(C(F)(F)F)[nH]c1=O` [Example 286, 5-(4-(imidazo[1,2-a]pyridin-3-ylmethoxy)phenyl)-2-oxo-6-(trifluoromethyl)-1,2-dihydropyridine-3-carboxamide], the IC50 lay in the range of 25 to 50 µM.
Take `Cc1oncc1COc1ccc(-c2cc(C(N)=O)c(=O)[nH]c2C(F)(F)F)cc1` [Example 269, 5-(4-((5-methylisoxazol-4-yl)methoxy)phenyl)-2-oxo-6-(trifluoromethyl)-1,2-dihydropyridine-3-carboxamide]: the IC50 fell in the range of 25 to 50 µM.
On to `C[C@@H]1COC[C@H](COc2ccc(-c3cc(C(N)=O)c(=O)[nH]c3C(F)(F)F)cc2)O1` [Example 328, 5-(4-(((2R,6R)-6-methyl-1,4-dioxan-2-yl)methoxy)phenyl)-2-oxo-6-(trifluoromethyl)-1,2-dihydropyridine-3-carboxamide], for which the IC50 lay in the range of 10 to 25 µM.
`C[C@]1(CC#N)COC[C@@H](COc2ccc(-c3cc(C(N)=O)c(=O)[nH]c3C(F)(F)F)cc2)O1` [Example 411, 5-(4-(((2S,6S)-6-(cyanomethyl)-6-methyl-1,4-dioxan-2-yl)methoxy)phenyl)-2-oxo-6-(trifluoromethyl)-1,2-dihydropyridine-3-carboxamide]: the IC50 lay in the range of 5 to 10 µM.
For the compound `COC[C@]1(C)COC[C@H](COc2ccc(-c3cc(C(N)=O)c(=O)[nH]c3C(F)(F)F)cc2)O1` [Example 407, 5-(4-(((2R,6R)-6-(methoxymethyl)-6-methyl-1,4-dioxan-2-yl)methoxy)phenyl)-2-oxo-6-(trifluoromethyl)-1,2-dihydropyridine-3-carboxamide], the IC50 lay within 5 to 10 µM.
As to `NC(=O)c1cc(-c2ccc(OCc3ccnn3CC3CC3)cc2)c(C(F)(F)F)[nH]c1=O` [Example 265, 5-(4-((1-(cyclopropylmethyl)-1H-pyrazol-5-yl)methoxy)phenyl)-2-oxo-6-(trifluoromethyl)-1,2-dihydropyridine-3-carboxamide], the IC50 lay within 25 to 50 µM.

Still in this test, the particulars now being: read-out: RNP_Hubei B.
Consider `NC(=O)c1cc(-c2ccc(CN3CCS(=O)(=O)CC3)cc2)c(C(F)(F)F)[nH]c1=O` [Example 47, 5-(4-((1,1-dioxidothiomorpholino)methyl)phenyl)-2-oxo-6-(trifluoromethyl)-1,2-dihydropyridine-3-carboxamide], for which the IC50 is 25 to 50 µM.
Same read-out and setting: the value for `NC(=O)c1cc(-c2cccc(N)c2)c(C(F)(F)F)[nH]c1=O` [Example 7, 5-(3-aminophenyl)-2-oxo-6-(trifluoromethyl)-1,2-dihydropyridine-3-carboxamide] was 25 to 50 µM; that for `NC(=O)c1cc(-c2ccc(OCc3nccs3)cc2)c(C(F)(F)F)[nH]c1=O` [Example 143, 2-oxo-5-(4-(thiazol-2-ylmethoxy)phenyl)-6-(trifluoromethyl)-1,2-dihydropyridine-3-carboxamide] was 10 to 25 µM; that for `C=CCCC(Oc1ccc(-c2cc(C(N)=O)c(=O)[nH]c2C(F)(F)F)cc1)c1cccnc1` (stereo not shown) [Example 185, 2-oxo-5-(4-((1-(pyridin-3-yl)pent-4-en-1-yl)oxy)phenyl)-6-(trifluoromethyl)-1,2-dihydropyridine-3-carboxamide] was 10 to 25 µM.
As to `CC(Oc1ccc(-c2cc(C(N)=O)c(=O)[nH]c2C(F)(F)F)cc1)c1cccnc1` (single isomer, unassigned) [Example 81, (R or S)-2-oxo-5-(4-(1-(pyridin-3-yl)ethoxy)phenyl)-6-(trifluoromethyl)-1,2-dihydropyridine-3-carboxamide], the IC50 lay within 10 to 25 µM.
Still for that read-out and setting: as for `NC(=O)c1cc(-c2ccc(OCc3ccccc3[N+](=O)[O-])cc2)c(C(F)(F)F)[nH]c1=O` [Example 76, 5-(4-((2-nitrobenzyl)oxy)phenyl)-2-oxo-6-(trifluoromethyl)-1,2-dihydropyridine-3-carboxamide], the figure is 10 to 25 µM; as for `NC(=O)c1cc(-c2ccc(COc3cccnc3)cc2)c(C(F)(F)F)[nH]c1=O` [Example 177, 2-oxo-5-(4-((pyridin-3-yloxy)methyl)phenyl)-6-(trifluoromethyl)-1,2-dihydropyridine-3-carboxamide], 25 to 50 µM; as for `NC(=O)c1cc(-c2ccc(OCc3cccc(N)c3)cc2)c(C(F)(F)F)[nH]c1=O` [Example 57, 5-(4-((3-aminobenzyl)oxy)phenyl)-2-oxo-6-(trifluoromethyl)-1,2-dihydropyridine-3-carboxamide], 5 to 10 µM.
`N#CCc1ccc(-c2cc(C(N)=O)c(=O)[nH]c2C(F)(F)F)cc1` [Example 20, 5-(4-(cyanomethyl)phenyl)-2-oxo-6-(trifluoromethyl)-1,2-dihydropyridine-3-carboxamide]: the IC50 was 25 to 50 µM.
As to `CC1CN(Cc2ccc(-c3cc(C(N)=O)c(=O)[nH]c3C(F)(F)F)cc2)CCO1` (stereo not shown) [Example 29, 5-(4-((2-methylmorpholino)methyl)phenyl)-2-oxo-6-(trifluoromethyl)-1,2-dihydropyridine-3-carboxamide], the IC50 is 10 to 25 µM.
`NC(=O)c1cc(-c2ccc(OCC3CCCOC3)cc2)c(C(F)(F)F)[nH]c1=O` (stereo not shown) [Example 102, 2-oxo-5-(4-((tetrahydro-2H-pyran-3-yl)methoxy)phenyl)-6-(trifluoromethyl)-1,2-dihydropyridine-3-carboxamide]: the IC50 lay in the range of 5 to 10 µM.
